The text below walks through data of patent publication US11566226B2, “Natural killer cells” (Imperial College of Science, Technology and Medicine, priority 2017, dated 2023).

Assay [1] concerns HPC culture. As to conditions: previously demonstrated, cited from earlier work.
Assay [2] has as its system E4bp4. As to conditions: cited from earlier work.
Assay [3] deals with HPCs. The experiment in a line: NK cell production from HPCs treated with SR8278 and/or cultured on rDLL4 (flow cytometry). The format is cell-based, mouse. As to conditions: SR8278 on day 2 of culture, no rDLL4; average of triplicate experiments. The protocol:
HPCs were cultured in four sets of conditions in addition to control (non-treated) conditions: (i) treated with SR8278 on day 2 of culture (no recombinant DLL4, rDLL4); (ii) cultured on rDLL4 (no SR8278); (iii) cultured on rDLL4 and treated with SR8278 on day 0 of culture; or (iv) treated with SR8278 on day 0 of culture, cultured on rDLL4 from day 2. Aside from the different treatments, the culture conditions were otherwise identical to those previously described for NK cell production from HPCs.
This experiment was repeated with an expanded set of culture conditions, as set out in FIG. 13. The results of this duplicate experiment are illustrated in FIG. 14.
Lineage negative HPCs were purified from mouse bone marrow by crushing the leg bones in Phosphate-buffered Saline (PBS) with 2% fetal calf serum (FCS) (STEMCELL Technologies), topped up to 40 ml with magnetic-activated cell sorting (MACS) buffer (PBS, 2 mM EDTA, 0.5% BSA, sterile and filtered) and centrifuged at 800 g for 2 minutes. […]
(§1) Cells to be analysed by flow cytometry were passed through 40 μm cell strainers to remove clumps and washed with PBS buffer, centrifuged at 800 g for 2 minutes and resuspended in 100 μl fluorescent activated cell sorting (FACS) buffer (PBS plus 1% BSA) with appropriate fluorochrome conjugated antibodies at a dilution of 1 in 300. […]

Assay [4] relates to human HPCs. As to conditions: human HPCs cultured in vitro; previously demonstrated; cited from earlier work.
Assay [5] has as its system E4bp4−/− Lin− BM cells. In words: NK cell development from E4bp4−/− Lin− BM cells on rDLL1/rDLL4-coated plates. It counts as cell-based, mouse. As to conditions: plates coated with 10 μg/ml ligand, first 7 days of culture, then IL-15. The protocol: As E4bp4 appeared to regulate Notch1 expression, it was speculated that enhanced Notch signalling, at an early stage, could potentially affect the development of NK cells from E4bp4^−/− HPCs. To study NK cell development from HPCs in the presence or absence of Notch signalling, Lin^− BM cells were cultured on either OP9 stromal cells or OP9-DL1 cells (that express the Notch ligand delta-like 1) (FIG. 10C). Subsequently, cells were transferred onto fresh OP9 and cultured in the presence of IL-15 (FIG. 11A). When E4bp4^−/− cells were grown on control OP9, no NK cell development was observed, but when the E4bp4^−/− cells were grown on OP9-DL1 for the first part of the culture, remarkably, NK cell development was rescued (FIG. 11B). The same result was not observed when the cells were grown on OP9-DL1 for the second part of the culture (FIG. 11B). To eliminate the influence of stromal cells, tissue culture plates were coated with either recombinant delta-like ligand 1 (rDLL1) or rDLL4 protein. […]
as §1

With `CCOC(=O)C1Cc2ccccc2CN1C(=O)c1ccc(SC)s1` (stereo not drawn) [SR8278, 1,2,3,4-Tetrahydro-2-[[5-(methylthio)-2-thienyl]carbonyl]-3-isoquinolinecarboxylic acid ethyl ester], in assay [1] (added to the HPC culture, optimum time Day 2), the “Optimum dose for in vitro NK cell production” value is 10 µM. Also, the “Increase of production of NK cells” value in assay [1] (upon administration of SR8278) is “more than 2 fold”. Also, the E4bp4 expression result in assay [2] is recorded as “increased”. For the same molecule, the “% of NK cells produced” value in assay [3] amounted to 57.5%. Further, the “Human NK cell development” value in assay [4] is “significantly increase”.

B1: rDLL1: recombinant delta-like ligand 1 protein (R&D Systems), coated on culture plates (protein, UniProt O00548 18-723, looked up)
Delta-like protein 1: QVWSSGVFELKLQEFVNKKGLLGNRNCCRGGAGPPPCACRTFFRVCLKHYQASVSPEPPCTYGSAVTPVLGVDSFSLPDGGGADSAFSNPIRFPFGFTWPGTFSLIIEALHTDSPDDLATENPERLISRLATQRHLTVGEEWSQDLHSSGRTDLKYSYRFVCDEHYYGEGCSVFCRPRDDAFGHFTCGERGEKVCNPGWKGPYCTEPICLPGCDEQHGFCDKPGECKCRVGWQGRYCDECIRYPGCLHGTCQQPWQCNCQEGWGGLFCNQDLNYCTHHKPCKNGATCTNTGQGSYTCSCRPGYTGATCELGIDECDPSPCKNGGSCTDLENSYSCTCPPGFYGKICELSAMTCADGPCFNGGRCSDSPDGGYSCRCPVGYSGFNCEKKIDYCSSSPCSNGAKCVDLGDAYLCRCQAGFSGRHCDDNVDDCASSPCANGGTCRDGVNDFSCTCPPGYTGRNCSAPVSRCEHAPCHNGATCHERGHRYVCECARGYGGPNCQFLLPELPPGPAVVDLTEKLEGQGGPFPWVAVCAGVILVLMLLLGCAAVVVCVRLRLQKHRPPADPCRGETETMNNLANCQREKDISVSIIGATQIKNTNKKADFHGDHSADKNGFKARYPAVDYNLVQDLKGDDTAVRDAHSKRDTKCQPQGSSGEEKGTPTTLRGGEASERKRPDSGCSTSKDTKYQSVYVISEEKDECVIATEV
For B1, the “Rescue of NK cell production in the absence of E4bp4” value in assay [5] is listed as “Only a very partial rescue”.
